In this experiment the test system is BDF1 mice, intracerebral L1210 leukemia, survival T/C. The experiment in a line: NCI In Vivo Anticancer Drug Screen. Data for tumor model L1210 Leukemia (intracerebral) in B6D2F1 (BDF1) mice. Particulars: higher = longer survival. In short, it runs like this: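 Survival measured in treated and vehicle-control tumour-bearing mice; value = T/C.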

“And” between values parts separate entries of the source, which are not always exact repeats. Equal values may be shown once. Inconclusive results and toxic doses are left out.

For 13 compounds, T/C results are on record in PubChem BioAssay AID252 (DTP/NCI, 2004).

With `O=C(NC1=C(N2CC2)C(=O)C(NC(=O)OCCO)=C(N2CC2)C1=O)OCCO`, the T/C reads like this: (endpoint: median survival time, dose: 0.18 mg/kg/injection, schedule: Q01DX009 (ip), vehicle: saline) 100 % of control; (endpoint: median survival time, dose: 0.39 mg/kg/injection, schedule: Q01DX009 (ip), vehicle: saline) 97 % of control; (endpoint: median survival time, dose: 0.75 mg/kg/injection, schedule: Q01DX009 (ip), vehicle: saline) 96 % of control and 97 % of control; (endpoint: median survival time, dose: 1.5 mg/kg/injection, schedule: Q01DX009 (ip), vehicle: saline) 91 % of control and 100 % of control; (endpoint: median survival time, dose: 3.0 mg/kg/injection, schedule: Q01DX009 (ip), vehicle: saline) 108 % of control and 101 % of control; (endpoint: median survival time, dose: 6.0 mg/kg/injection, schedule: Q01DX009 (ip), vehicle: saline) 122 % of control and 98 % of control.

Consider `CS(=O)(=O)OCCCCOS(C)(=O)=O`, for which the T/C is 95 % of control (endpoint: mean survival time, dose: 27.0 mg/kg/injection, schedule: Q01DX001 (ip), vehicle: carboxymethylcellulose (CMC)); 93 % of control (endpoint: mean survival time, dose: 41.0 mg/kg/injection, schedule: Q01DX001 (ip), vehicle: carboxymethylcellulose (CMC)); 94 % of control (endpoint: mean survival time, dose: 61.0 mg/kg/injection, schedule: Q01DX001 (ip), vehicle: carboxymethylcellulose (CMC)).

With `CC1(NC(=O)N(CCCl)N=O)CCCC1`, the T/C reads like this: (endpoint: mean survival time, dose: 12.5 mg/kg/injection, schedule: Q01DX001 (ip), vehicle: carboxymethylcellulose (CMC)) 91 % of control; (endpoint: mean survival time, dose: 25.0 mg/kg/injection, schedule: Q01DX001 (ip), vehicle: carboxymethylcellulose (CMC)) 102 % of control; (endpoint: mean survival time, dose: 50.0 mg/kg/injection, schedule: Q01DX001 (ip), vehicle: carboxymethylcellulose (CMC)) 100 % of control; (endpoint: mean survival time, dose: 100.0 mg/kg/injection, schedule: Q01DX001 (ip), vehicle: carboxymethylcellulose (CMC)) 100 % of control; (endpoint: mean survival time, dose: 125.0 mg/kg/injection, schedule: Q01DX001 (ip), vehicle: carboxymethylcellulose (CMC)) 347 % of control; (endpoint: mean survival time, dose: 187.0 mg/kg/injection, schedule: Q01DX001 (ip), vehicle: carboxymethylcellulose (CMC)) 285 % of control. Where the note is “endpoint: mean survival time, dose: 250.0 mg/kg/injection, schedule: Q01DX001 (ip), vehicle: carboxymethylcellulose (CMC)”, the T/C was 276 % of control.

On to `O=c1cn[nH]c(=O)[nH]1`, for which the T/C was 102 % of control (endpoint: mean survival time, dose: 440.0 mg/kg/injection, schedule: Q01DX001 (ip), vehicle: carboxymethylcellulose (CMC)); 101 % of control (endpoint: mean survival time, dose: 670.0 mg/kg/injection, schedule: Q01DX001 (ip), vehicle: carboxymethylcellulose (CMC)); 101 % of control (endpoint: mean survival time, dose: 1000.0 mg/kg/injection, schedule: Q01DX001 (ip), vehicle: carboxymethylcellulose (CMC)).

In the case of `C[C@@H](CN1CC(=O)NC(=O)C1)N1CC(=O)NC(=O)C1`, the T/C (endpoint: median survival time, dose: 8.0 mg/kg/injection, schedule: Q01DX009 (ip), vehicle: water) was 112 % of control; the T/C (endpoint: median survival time, dose: 16.0 mg/kg/injection, schedule: Q01DX009 (ip), vehicle: water) is 121 % of control and 123 % of control; the T/C (endpoint: median survival time, dose: 128.0 mg/kg/injection, schedule: Q01DX009 (ip), vehicle: water) was 123 % of control; the T/C (endpoint: median survival time, dose: 256.0 mg/kg/injection, schedule: Q01DX009 (ip), vehicle: water) was 111 % of control; the T/C (endpoint: median survival time, dose: 512.0 mg/kg/injection, schedule: Q01DX009 (ip), vehicle: water) is 113 % of control.

On to `O=C1C=C(N2CC2)C(=O)C(N2CC2)=C1N1CC1`, for which the T/C (endpoint: mean survival time, dose: 0.01 mg/kg/injection, schedule: Q01DX009 (ip), vehicle: saline) was 94 % of control; the T/C (endpoint: mean survival time, dose: 0.02 mg/kg/injection, schedule: Q01DX009 (ip), vehicle: saline) is 100 % of control; the T/C (endpoint: mean survival time, dose: 0.05 mg/kg/injection, schedule: Q01DX009 (ip), vehicle: saline) was 116 % of control.

Regarding `Nc1nc(=S)c2ncn(C3OC(CO)C(O)C3O)c2[nH]1` (configuration not stated), the T/C was 105 % of control (endpoint: mean survival time, dose: 0.66 mg/kg/injection, schedule: Q01DX015 (ip), vehicle: carboxymethylcellulose (CMC)); 115 % of control (endpoint: mean survival time, dose: 1.0 mg/kg/injection, schedule: Q01DX015 (ip), vehicle: carboxymethylcellulose (CMC)); 121 % of control (endpoint: mean survival time, dose: 1.5 mg/kg/injection, schedule: Q01DX015 (ip), vehicle: carboxymethylcellulose (CMC)); 157 % of control (endpoint: mean survival time, dose: 95.0 mg/kg/injection, schedule: Q01DX001 (ip), vehicle: carboxymethylcellulose (CMC)); 171 % of control (endpoint: mean survival time, dose: 144.0 mg/kg/injection, schedule: Q01DX001 (ip), vehicle: carboxymethylcellulose (CMC)); 152 % of control (endpoint: mean survival time, dose: 215.0 mg/kg/injection, schedule: Q01DX001 (ip), vehicle: carboxymethylcellulose (CMC)).

Turning to `COc1cccc2c1C(=O)c1c(O)c3c(c(O)c1C2=O)C[C@@](O)(C(=O)CO)C[C@@H]3OC1CC(N)C(O)C(C)O1` (some centres not stated), the T/C by setting is: (endpoint: mean survival time, dose: 0.05 mg/kg/injection, schedule: Q03HX024 (ip), vehicle: saline) 106 % of control; (endpoint: mean survival time, dose: 0.1 mg/kg/injection, schedule: Q03HX024 (ip), vehicle: saline) 103 % of control; (endpoint: mean survival time, dose: 0.2 mg/kg/injection, schedule: Q03HX024 (ip), vehicle: saline) 100 % of control; (endpoint: mean survival time, dose: 0.4 mg/kg/injection, schedule: Q03HX024 (ip), vehicle: saline) 102 % of control; (endpoint: mean survival time, dose: 0.5 mg/kg/injection, schedule: Q01DX005 (ip), vehicle: saline) 104 % of control; (endpoint: mean survival time, dose: 0.5 mg/kg/injection, schedule: Q01DX009 (ip), vehicle: saline) 101 % of control. Also, the T/C (endpoint: mean survival time, dose: 0.5 mg/kg/injection, schedule: Q04DX003 (ip), vehicle: saline) was 105 % of control; the T/C (endpoint: mean survival time, dose: 0.8 mg/kg/injection, schedule: Q03HX024 (ip), vehicle: saline) was 101 % of control; the T/C (endpoint: mean survival time, dose: 1.0 mg/kg/injection, schedule: Q01DX005 (ip), vehicle: saline) is 104 % of control; the T/C (endpoint: mean survival time, dose: 1.0 mg/kg/injection, schedule: Q01DX009 (ip), vehicle: saline) was 102 % of control; the T/C (endpoint: mean survival time, dose: 1.0 mg/kg/injection, schedule: Q04DX003 (ip), vehicle: saline) is 102 % of control; the T/C (endpoint: mean survival time, dose: 2.0 mg/kg/injection, schedule: Q01DX005 (ip), vehicle: saline) is 107 % of control. Besides, the T/C is 101 % of control (endpoint: mean survival time, dose: 2.0 mg/kg/injection, schedule: Q01DX009 (ip), vehicle: saline); 101 % of control (endpoint: mean survival time, dose: 2.0 mg/kg/injection, schedule: Q04DX003 (ip), vehicle: saline); 106 % of control (endpoint: mean survival time, dose: 4.0 mg/kg/injection, schedule: Q01DX005 (ip), vehicle: saline); 108 % of control (endpoint: mean survival time, dose: 4.0 mg/kg/injection, schedule: Q04DX003 (ip), vehicle: saline); 100 % of control (endpoint: mean survival time, dose: 8.0 mg/kg/injection, schedule: Q04DX003 (ip), vehicle: saline).

Consider `CSc1ncnc2c1ncn2C1OC(CO)C(O)C1O` (configuration not stated), for which the T/C is 113 % of control (endpoint: mean survival time, dose: 25.0 mg/kg/injection, schedule: Q01DX Z (ip), vehicle: saline) and 92 % of control (endpoint: mean survival time, dose: 50.0 mg/kg/injection, schedule: Q01DX Z (ip), vehicle: saline).

Take `Cc1cccc2c(Nc3ccc(NS(C)(=O)=O)cc3)c3ccc([N+](=O)[O-])cc3nc12`: the T/C by setting is: (endpoint: mean survival time, dose: 10.0 mg/kg/injection, schedule: Q01DX009 (ip), vehicle: saline) 114 % of control; (endpoint: mean survival time, dose: 10.0 mg/kg/injection, schedule: Q01DX009 (sc), vehicle: saline) 104 % of control; (endpoint: mean survival time, dose: 20.0 mg/kg/injection, schedule: Q01DX009 (ip), vehicle: saline) 94 % of control; (endpoint: mean survival time, dose: 20.0 mg/kg/injection, schedule: Q01DX009 (sc), vehicle: saline) 101 % of control; (endpoint: mean survival time, dose: 40.0 mg/kg/injection, schedule: Q01DX009 (sc), vehicle: saline) 96 % of control.

As to `CCNC(=O)N(CC)N=O`, the T/C is 100 % of control (endpoint: mean survival time, dose: 222.0 mg/kg/injection, schedule: Q01DX001 (ip), vehicle: saline); 110 % of control (endpoint: mean survival time, dose: 333.0 mg/kg/injection, schedule: Q01DX001 (ip), vehicle: saline); 123 % of control (endpoint: mean survival time, dose: 500.0 mg/kg/injection, schedule: Q01DX001 (ip), vehicle: saline).

`CN(N=O)C(N)=O`: the T/C is, setting by setting: (endpoint: mean survival time, dose: 18.0 mg/kg/injection, schedule: Q01DX001 (ip), vehicle: saline) 102 % of control; (endpoint: mean survival time, dose: 36.0 mg/kg/injection, schedule: Q01DX001 (ip), vehicle: saline) 110 % of control; (endpoint: mean survival time, dose: 72.0 mg/kg/injection, schedule: Q01DX001 (ip), vehicle: saline) 152 % of control.

For `CCC(=O)NC1=C(N2CC2C)C(=O)C(NC(=O)CC)=C(N2CC2C)C1=O` (configuration not stated), the T/C was 96 % of control (endpoint: mean survival time, dose: 1.56 mg/kg/injection, schedule: Q01DX009 (ip), vehicle: Klucel (hydroxypropylcellulose) (HPC)); 94 % of control (endpoint: mean survival time, dose: 3.12 mg/kg/injection, schedule: Q01DX009 (ip), vehicle: Klucel (hydroxypropylcellulose) (HPC)); 122 % of control and 335 % of control (endpoint: mean survival time, dose: 12.5 mg/kg/injection, schedule: Q01DX009 (ip), vehicle: Klucel (hydroxypropylcellulose) (HPC)); 101 % of control and 107 % of control (endpoint: mean survival time, dose: 25.0 mg/kg/injection, schedule: Q01DX009 (ip), vehicle: Klucel (hydroxypropylcellulose) (HPC)).
